Results from patent publication US11634396B2 (priority 2021, dated 2023).
Where two headings read alike, the source gives them in different places.

Tests used:
kOR (OPRK1) = kOR (OPRK1) (Homo sapiens (Human), UniProt P41145); assay: KOR β-Arrestin antagonist assay (Tango OPRK1-bla U2OS cells); assay type: cell-based
Source text: KOR β-Arrestin Agonist and Antagonist assays were preformed using the Tango™ OPRK1-bla U2OS cells from Invitrogen and purchased from ThermoFisher, catalog number K1576.

human mOR = human mOR (Homo sapiens (Human), UniProt P35372); assay: cell-based
Chain of human mOR (P35372 whole entry): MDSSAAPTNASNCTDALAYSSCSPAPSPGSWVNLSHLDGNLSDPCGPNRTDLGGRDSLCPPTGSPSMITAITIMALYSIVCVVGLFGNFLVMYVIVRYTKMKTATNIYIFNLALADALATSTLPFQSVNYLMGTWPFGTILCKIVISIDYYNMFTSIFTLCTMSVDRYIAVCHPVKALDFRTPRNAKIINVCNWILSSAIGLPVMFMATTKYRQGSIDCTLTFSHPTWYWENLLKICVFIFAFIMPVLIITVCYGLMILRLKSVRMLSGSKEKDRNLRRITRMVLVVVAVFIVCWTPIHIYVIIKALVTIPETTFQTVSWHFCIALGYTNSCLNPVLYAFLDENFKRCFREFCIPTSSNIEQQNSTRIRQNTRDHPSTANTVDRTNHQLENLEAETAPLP

human dOR = human dOR (Homo sapiens (Human), UniProt P41143); assay: cell-based; conditions: dOR cAMP Agonist Assay EC50, CHO Tag-lite human dOR stable cell line; forskolin
Chain of human dOR (P41143 whole entry): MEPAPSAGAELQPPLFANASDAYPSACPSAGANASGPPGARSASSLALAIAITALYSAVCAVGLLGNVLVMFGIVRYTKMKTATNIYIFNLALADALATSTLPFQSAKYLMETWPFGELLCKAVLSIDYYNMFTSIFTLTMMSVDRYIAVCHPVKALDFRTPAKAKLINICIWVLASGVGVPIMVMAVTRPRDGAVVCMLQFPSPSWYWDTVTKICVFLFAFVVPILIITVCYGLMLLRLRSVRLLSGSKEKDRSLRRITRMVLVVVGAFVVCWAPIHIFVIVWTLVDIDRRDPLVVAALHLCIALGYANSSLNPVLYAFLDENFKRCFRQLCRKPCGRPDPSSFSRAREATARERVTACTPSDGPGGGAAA

[1] = CHO Tag-lite human mOR stable cell line, forskolin 4 μM and DAMGO at EC90, read-out: mOR cAMP Antagonist Assay IC50

Chain of kOR (OPRK1) (P41145 whole entry): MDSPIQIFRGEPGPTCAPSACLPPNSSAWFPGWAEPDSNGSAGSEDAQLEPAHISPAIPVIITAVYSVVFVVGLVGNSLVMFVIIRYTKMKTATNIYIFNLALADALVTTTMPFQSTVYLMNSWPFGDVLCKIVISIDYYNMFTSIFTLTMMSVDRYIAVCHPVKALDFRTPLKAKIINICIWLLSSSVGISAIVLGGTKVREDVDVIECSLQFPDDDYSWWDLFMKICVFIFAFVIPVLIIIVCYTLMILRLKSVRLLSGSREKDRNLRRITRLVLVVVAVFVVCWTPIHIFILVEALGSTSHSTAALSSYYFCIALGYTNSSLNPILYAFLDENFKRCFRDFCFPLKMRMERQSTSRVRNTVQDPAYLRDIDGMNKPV

Q: How did the IC50 (kOR (OPRK1)) turn out when `Cc1cc(C(N)=O)cc(C)c1C[C@@H](CNC(=O)C[C@@H](c1ccccc1)C1(C(F)(F)F)CC1)N(C)C` [Compound 7, 4-((S)-2-(dimethylamino)-3-((S)-3-phenyl-3-(1-(trifluoromethyl)cyclopropyl)propanamido)propyl)-3,5-dimethylbenzamide] was run?
A: < 300 nM

Q: And the IC50 (human mOR; [1])?
A: > 3000 nM

Q: What about the EC50 (human dOR) of the same compound?
A: < 300 nM

Q: Which IC50 (kOR (OPRK1)) does the source give for `CN(C)[C@H](CNC(=O)CC(c1cncc(F)c1)C1(C(F)(F)F)CC1)Cc1ccc(C(N)=O)cc1Cl` (stereo partly drawn) [Compound 36, 3-chloro-4-[(2S)-2-(dimethylamino)-3-[3-(5-fluoropyridin-3-yl)-3-[1-(trifluoromethyl)cyclopropyl]propanamido]propyl]benzamide] here?
A: < 300 nM

Q: And the IC50 (human mOR; [1])?
A: < 300 nM

Q: Which results are given for `CN(C)[C@H](CNC(=O)CC(c1ccc(Cl)cn1)C1(C(F)(F)F)CC1)Cc1ccc(C(N)=O)cc1Cl` (stereo partly drawn) [Compound 37, 3-chloro-4-[(2S)-3-[3-(5-chloropyridin-2-yl)-3-[1-(trifluoromethyl)cyclopropyl]propanamido]-2-(dimethylamino)propyl]benzamide]?
A: IC50 (kOR (OPRK1)): < 300 nM; IC50 (human mOR): < 300 nM

Q: Which results are given for `CN(C)[C@H](CNC(=O)CC(c1cccnc1)C1(C(F)(F)F)CC1)Cc1ccc(C(N)=O)cc1Cl` (stereo partly drawn) [Compound 38, 3-chloro-4-[(2S)-2-(dimethylamino)-3-[3-(pyridin-3-yl)-3-[1-(trifluoromethyl)cyclopropyl]propanamido]propyl]benzamide]?
A: IC50 (kOR (OPRK1)): < 300 nM; IC50 (human mOR): < 300 nM

Q: `CN(C)[C@H](CNC(=O)C[C@@H](c1cccnc1)C1(C(F)(F)F)CC1)Cc1ccc(C(N)=O)cc1Cl` [Compound 41, 3-chloro-4-((S)-2-(dimethylamino)-3-((S)-3-(pyridin-3-yl)-3-(1-(trifluoromethyl)cyclopropyl)propanamido)propyl)benzamide] was tested. Which IC50 (kOR (OPRK1)) did it give?
A: < 300 nM

Q: What about the IC50 (human mOR) of the same compound?
A: < 300 nM

Q: `COc1ccc(C(CC(=O)NC[C@H](Cc2cc(F)c(C(N)=O)c(F)c2)N(C)C)C2(C(F)(F)F)CC2)cn1` (stereo partly drawn) [Compound 49, 4-[(2S)-2-(dimethylamino)-3-[3-(6-methoxypyridin-3-yl)-3-[1-(trifluoromethyl)cyclopropyl]propanamido]propyl]-2,6-difluorobenzamide] was tested. Which IC50 (kOR (OPRK1)) did it give?
A: < 300 nM

Q: And the IC50 (human mOR)?
A: > 3000 nM

Q: How did the IC50 (kOR (OPRK1)) turn out when `Cc1ncc([C@@H](CC(=O)NC[C@H](Cc2ccc(C(N)=O)c(F)c2)N2CCCC2)C2(C(F)(F)F)CC2)cn1` [Compound 65, 2-fluoro-4-((S)-3-((R)-3-(2-methylpyrimidin-5-yl)-3-(1-(trifluoromethyl)cyclopropyl)propanamido)-2-(pyrrolidin-1-yl)propyl)benzamide] was run?
A: 300 to 3000 nM

Q: And the IC50 (human mOR)?
A: > 3000 nM

Q: With `CN(C)[C@H](CNC(=O)C[C@@H](CC1CC1)c1cccnc1)Cc1ccc(C(N)=O)c(F)c1` [Compound 66, 4-((S)-3-((R)-4-cyclopropyl-3-(pyridin-3-yl)butanamido)-2-(dimethylamino)propyl)-2-fluorobenzamide] as the compound, how does the IC50 (kOR (OPRK1)) read?
A: < 300 nM

Q: What about the IC50 (human mOR) of the same compound?
A: < 300 nM

Q: Which results are given for `CN(C)[C@H](CNC(=O)CC(c1cncnc1)C1(C(F)(F)F)CC1)Cc1ccc(C(N)=O)c(F)c1` (stereo partly drawn) [Compound 72, 4-[(2S)-2-(dimethylamino)-3-[3-(pyrimidin-5-yl)-3-[1-(trifluoromethyl)cyclopropyl]propanamido]propyl]-2-fluorobenzamide]?
A: IC50 (kOR (OPRK1)): < 300 nM; IC50 (human mOR; [1]): < 300 nM

Q: With `CN(C)[C@H](CNC(=O)CC(c1ncc(Cl)cn1)C1(C(F)(F)F)CC1)Cc1ccc(C(N)=O)c(F)c1` (stereo partly drawn) [Compound 73, 4-[(2S)-3-[3-(5-chloropyrimidin-2-yl)-3-[1-(trifluoromethyl)cyclopropyl]propanamido]-2-(dimethylamino)propyl]-2-fluorobenzamide] as the compound, how does the IC50 (kOR (OPRK1)) read?
A: < 300 nM

Q: What about the IC50 (human mOR) of the same compound?
A: < 300 nM

Q: `CN(C)[C@H](CNC(=O)CC(c1cccnc1)C1(C(F)(F)F)CC1)Cc1ccc(C(N)=O)c(F)c1` (stereo partly drawn) [Compound 74, 4-[(2S)-2-(dimethylamino)-3-[3-(pyridin-3-yl)-3-[1-(trifluoromethyl)cyclopropyl]propanamido]propyl]-2-fluorobenzamide] was tested. Which IC50 (kOR (OPRK1)) did it give?
A: < 300 nM

Q: What about the IC50 (human mOR) of the same compound?
A: > 3000 nM

Q: Which IC50 (kOR (OPRK1)) does the source give for `Cc1ccc([C@@H](CC(=O)NC[C@H](Cc2ccc(C(N)=O)c(F)c2)N(C)C)C2(C(F)(F)F)CC2)cn1` [Compound 75, 4-[(2S)-2-(dimethylamino)-3-[(3R)-3-(6-methylpyridin-3-yl)-3-[1-(trifluoromethyl)cyclopropyl]propanamido]propyl]-2-fluorobenzamide] here?
A: < 300 nM

Q: And the IC50 (human mOR)?
A: < 300 nM

Q: What does the source list for `CN(C)[C@H](CNC(=O)CC(c1cncc(F)c1)C1(C(F)(F)F)CC1)Cc1ccc(C(N)=O)c(F)c1` (stereo partly drawn) [Compound 76, 4-[(2S)-2-(dimethylamino)-3-[3-(5-fluoropyridin-3-yl)-3-[1-(trifluoromethyl)cyclopropyl]propanamido]propyl]-2-fluorobenzamide]?
A: IC50 (kOR (OPRK1)): < 300 nM; IC50 (human mOR): > 3000 nM

Q: `CN(C)[C@H](CNC(=O)C[C@H](c1ccccn1)C1(C(F)(F)F)CC1)Cc1ccc(C(N)=O)cc1` [Compound 81, 4-((S)-2-(dimethylamino)-3-((S)-3-(pyridin-2-yl)-3-(1-(trifluoromethyl)cyclopropyl)propanamido)propyl)benzamide] was tested. Which IC50 (kOR (OPRK1)) did it give?
A: < 300 nM

Q: What about the IC50 (human mOR) of the same compound?
A: < 300 nM

Q: Which results are given for `CN(C)[C@H](CNC(=O)C[C@@H](c1ccccn1)C1(C(F)(F)F)CC1)Cc1ccc(C(N)=O)cc1` [Compound 84, 4-[(2S)-2-(dimethylamino)-3-[(3R)-3-(pyridin-2-yl)-3-[1-(trifluoromethyl)cyclopropyl]propanamido]propyl]benzamide]?
A: IC50 (kOR (OPRK1)): < 300 nM; IC50 (human mOR): < 300 nM

Q: For `CN[C@H](CNC(=O)C[C@H](c1ccccc1)C1(C(F)(F)F)CC1)Cc1ccc(C(N)=O)cc1` [Compound 85, 4-[(2S)-2-(methylamino)-3-[(3R)-3-phenyl-3-[1-(trifluoromethyl)cyclopropyl]propanamido]propyl]benzamide], which IC50 (kOR (OPRK1)) is on record?
A: < 300 nM

Q: And the IC50 (human mOR)?
A: < 300 nM

Q: What does the source list for `CNC(=O)c1ccc(C[C@@H](CNC(=O)CC(c2ccccn2)C2(C(F)(F)F)CC2)N(C)C)c(C)c1` (stereo partly drawn) [Compound 141, 4-((2S)-2-(dimethylamino)-3-(3-(pyridin-2-yl)-3-(1-(trifluoromethyl)cyclopropyl)propanamido)propyl)-N,3-dimethylbenzamide]?
A: IC50 (kOR (OPRK1)): < 300 nM; IC50 (human mOR): < 300 nM

Q: `CN(C)[C@H](CNC(=O)C[C@H](c1cccnc1)C1(C(F)(F)F)CC1)Cc1ccc(O)cc1C(F)(F)F` [Compound 255, (R)-N-((S)-2-(dimethylamino)-3-(4-hydroxy-2-(trifluoromethyl)phenyl)propyl)-3-(pyridin-3-yl)-3-(1-(trifluoromethyl)cyclopropyl) propanamide] was tested. Which IC50 (kOR (OPRK1)) did it give?
A: > 3000 nM

Q: And the IC50 (human mOR)?
A: < 300 nM

Q: For `COc1ccc(C(CC(=O)NC[C@H](Cc2ccc(O)cc2C)N(C)C)C2(C(F)(F)F)CC2)cn1` (stereo partly drawn) [Compound 273, N-((S)-2-(dimethylamino)-3-(4-hydroxy-2-methylphenyl)propyl)-3-(6-methoxypyridin-3-yl)-3-(1-(trifluoromethyl)cyclopropyl) propanamide], which IC50 (kOR (OPRK1)) is on record?
A: < 300 nM

Q: And the IC50 (human mOR)?
A: < 300 nM

Q: Which IC50 (kOR (OPRK1)) does the source give for `Cc1cc(O)cc(C)c1C[C@@H](CNC(=O)CC(c1cccnc1)C1(C(F)(F)F)CC1)N(C)C` (stereo partly drawn) [Compound 316, N-((S)-2-(dimethylamino)-3-(4-hydroxy-2,6-dimethylphenyl)propyl)-3-(pyridin-3-yl)-3-(1-(trifluoromethyl)cyclopropyl)propanamide] here?
A: < 300 nM

Q: What about the IC50 (human mOR) of the same compound?
A: < 300 nM
